“And” between values parts separate entries of the source, which are not always exact repeats. Equal entries are not always repeated.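 1) Cells in 96-well plates. 2) Compound, 48 h, 5 concentrations. 3) Linear interpolation between surrounding doses. 4) Unreached endpoint = highest concentration. GI50 marks 50% less growth. TGI denotes the concentration required for complete inhibition of growth.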
How the values were obtained:
Experiment in all cases: growth of human tumour cells (NCI), 48 h
[1] = test system: A549 NSCLC
[2] = test system: HS 578T breast
[3] = test system: K-562 leukemia
[4] = test system: NCI-H460 lung
[5] = test system: PC-3 prostate
[6] = test system: SF-268 CNS
[7] = test system: SK-MEL-28 melanoma
[8] = test system: U251 CNS
[9] = test system: MDA-MB-231 breast
[10] = test system: MDA-MB-435

## O=C(CCl)N1CCN(c2ccccn2)CC1
[1]
  TGI: > 10 µM
[2]
  TGI: > 100 µM
[3]
  TGI: > 100 µM
[4]
  TGI: 41.2 µM
[5]
  TGI: > 100 µM
[6]
  TGI: 63.8 µM
[7]
  TGI: 41.6 µM
[8]
  TGI: 33.9 µM

## O=C1CC[C@@H](S(=O)(=O)c2ccccc2)[C@H](/C=C/c2ccccc2)O1
[1]
  TGI: > 100 µM
[3]
  TGI: > 100 µM
[4]
  TGI: > 100 µM
[7]
  TGI: > 100 µM
[8]
  TGI: > 100 µM

## C=C1C2CCCC1C1(S(C)(=O)=O)CCCCC21O (centres undefined)
[1]
  TGI: > 100 µM
[3]
  TGI: > 100 µM
[4]
  TGI: > 100 µM
[7]
  TGI: > 100 µM
[8]
  TGI: > 100 µM

## CN(C)CC1CCCC/C1=N\OC(=O)c1ccccc1 (centres undefined)
[1]
  TGI: > 100 µM
[3]
  TGI: > 100 µM
[4]
  TGI: > 100 µM
[6]
  TGI: > 100 µM
[7]
  TGI: > 100 µM
[8]
  TGI: > 100 µM

## C=CCc1cc(OC)c(O)c(C(=O)/C=C/c2ccc(OC)c(OC)c2)c1
[1]
  TGI: > 100 µM
[3]
  TGI: 41.8 µM
[4]
  TGI: > 100 µM
[6]
  TGI: 53.1 µM
[7]
  TGI: 33.6 µM
[8]
  TGI: 37.8 µM

## O=C(CC(O)(C(F)(F)F)C(F)(F)F)c1cccs1
[1]
  TGI: > 10 µM
[2]
  TGI: > 10 µM
[3]
  TGI: > 10 µM
[9]
  TGI: > 10 µM
[10]
  TGI: > 10 µM
[5]
  TGI: > 10 µM
[6]
  TGI: > 10 µM
[7]
  TGI: > 10 µM
[8]
  TGI: > 10 µM

## O=C1NC(c2cccc3ccccc23)Nc2ccc(Cl)cc21 (centres undefined)
[1]
  TGI: > 100 µM
[9]
  TGI: 30.3 µM
[10]
  TGI: 0.000257 µM
[4]
  TGI: 0.279 µM
[5]
  TGI: 0.0148 µM and 0.0143 µM
[6]
  TGI: 23.3 µM
[7]
  TGI: 20.6 µM
[8]
  TGI: 0.022 µM and 0.0266 µM

## CC(=O)[CH-]C(=O)c1ccccc1.CC(=O)[CH-]C(=O)c1ccccc1.CC(=O)[CH-]C(=O)c1ccccc1.[Cl-].[Hf+4]
[1]
  GI50: 46.4 µM
  TGI: > 100 µM
[3]
  GI50: 37.6 µM
  TGI: > 100 µM
[4]
  GI50: 38.5 µM
  TGI: > 100 µM
[6]
  GI50: 23.7 µM
  TGI: > 100 µM
[7]
  GI50: 23.6 µM
  TGI: 85.3 µM
[8]
  GI50: 22 µM
  TGI: > 100 µM

## NC(N)=NCCCC(Nc1c2ccccc2nc2ccccc12)C(=O)O (centres undefined)
[1]
  TGI: > 100 µM
[3]
  TGI: > 100 µM
[4]
  TGI: > 100 µM
[6]
  TGI: > 100 µM
[7]
  TGI: > 100 µM
[8]
  TGI: > 100 µM

## [pH]1p2[pH]p3p1p3[pH]2.c1cc[c]([Ge]([c]2ccccc2)[c]2ccccc2)cc1.c1cc[c]([Ge]([c]2ccccc2)[c]2ccccc2)cc1.c1cc[c]([Ge]([c]2ccccc2)[c]2ccccc2)cc1
[1]
  GI50: 25.4 µM
  TGI: > 100 µM
[3]
  GI50: 16.4 µM
  TGI: 43.5 µM
[4]
  GI50: 6.95 µM
  TGI: 27.5 µM
[6]
  GI50: 16.4 µM
  TGI: 40.7 µM
[7]
  GI50: 11.9 µM
  TGI: 25 µM
[8]
  GI50: 7.54 µM
  TGI: 19.7 µM

## O=C(Nc1ccc(Nc2ccc(NC(=O)c3ccccc3)c3c2C(=O)c2ccccc2C3=O)c2c1C(=O)c1ccccc1C2=O)c1ccccc1
[1]
  TGI: > 100 µM
[3]
  TGI: > 100 µM
[4]
  TGI: > 100 µM
[6]
  TGI: > 100 µM
[7]
  TGI: > 100 µM
[8]
  TGI: > 100 µM

## CC(=O)CCC[C@@H](C)[C@@H]1O[C@H]([C@@]2(C)CCC(=O)O2)CC2[C@H]1OC(=O)C21CC1 (some centres undefined)
[1]
  GI50: > 100 µM
  TGI: > 100 µM
[3]
  GI50: > 100 µM
  TGI: > 100 µM
[9]
  GI50: > 100 µM
  TGI: > 100 µM
[10]
  GI50: > 100 µM
  TGI: > 100 µM
[4]
  GI50: 39.7 µM
  TGI: > 100 µM
[5]
  GI50: 52.5 µM
  TGI: > 100 µM
[6]
  GI50: > 100 µM
  TGI: > 100 µM
[7]
  GI50: > 100 µM
  TGI: > 100 µM
[8]
  GI50: 91.3 µM
  TGI: > 100 µM

## COc1ccc(C(=O)C(c2ccc(OC)cc2)C2(O)C(=O)Nc3c(Cl)cc(Cl)cc32)cc1 (centres undefined)
[1]
  TGI: 54.9 µM
[3]
  TGI: 41.5 µM
[4]
  TGI: 49.9 µM
[6]
  TGI: > 100 µM
[7]
  TGI: 44.4 µM
[8]
  TGI: > 100 µM

## COc1c(CC(C)=O)c2ccccc2n1C(C)=O
[1]
  TGI: > 100 µM
[3]
  TGI: > 100 µM
[4]
  TGI: > 100 µM
[7]
  TGI: > 100 µM
[8]
  TGI: > 100 µM

## COc1cc(C(=O)/C=C/c2cccnc2Nc2ccc(Cl)cc2)cc(OC)c1OC
[1]
  GI50: 1.63 µM
  TGI: 3.6 µM
[2]
  GI50: 3.08 µM
  TGI: 59.2 µM
[9]
  GI50: 1.49 µM
  TGI: 3.12 µM
[10]
  GI50: 1.49 µM
  TGI: 3.36 µM
[4]
  GI50: 1.92 µM
  TGI: 3.88 µM
[5]
  GI50: 1.44 µM
  TGI: 3.33 µM
[6]
  GI50: 1.72 µM
  TGI: 3.19 µM
[7]
  GI50: 1.72 µM
  TGI: 3.12 µM
[8]
  GI50: 1.25 µM
  TGI: 2.54 µM

## O=C(CCl)N1CCN(c2ccccc2)CC1
[1]
  TGI: 43.3 µM
[2]
  TGI: 76.7 µM
[3]
  TGI: > 100 µM
[4]
  TGI: 34.9 µM
[5]
  TGI: 59.4 µM
[6]
  TGI: 33 µM
[7]
  TGI: 35.7 µM
[8]
  TGI: 34.4 µM

## CS(=O)(=O)ON1C(=O)c2ccc(N)cc2C1=O
[1]
  TGI: > 100 µM
[3]
  TGI: > 100 µM
[4]
  TGI: > 100 µM
[6]
  TGI: > 95.7 µM
[7]
  TGI: > 88.6 µM
[8]
  TGI: > 100 µM

## Cc1[nH]c2ccccc2c1/C=C/c1c(C)[nH]c2ccccc12
[1]
  TGI: > 100 µM
[3]
  TGI: > 100 µM
[4]
  TGI: > 100 µM
[7]
  TGI: > 100 µM
[8]
  TGI: > 100 µM

## O=C1C=C(Nc2cc(Cl)ccc2Cl)c2ccccc2C1=O
[1]
  TGI: > 100 µM
[3]
  TGI: 36.8 µM
[4]
  TGI: 88.9 µM
[6]
  TGI: > 100 µM
[7]
  TGI: > 100 µM
[8]
  TGI: > 100 µM

## COc1ccc(N=Nc2c(-c3ccccc3)nn(C(=O)CC(=O)Nc3ccc(OC)cc3)c2-c2ccccc2)cc1
[1]
  TGI: > 100 µM
[3]
  TGI: > 100 µM
[4]
  TGI: > 100 µM
[6]
  TGI: > 100 µM
[7]
  TGI: > 100 µM
[8]
  TGI: > 100 µM

## CCN(CC)Cc1cc(Nc2ccnc3ccc(OC)cc23)ccc1O
[1]
  GI50: 4.37 µM
  TGI: 18.1 µM
[2]
  GI50: 9.35 µM
  TGI: 30.6 µM
[9]
  GI50: 4.76 µM
  TGI: 31.2 µM
[10]
  GI50: 3.08 µM
  TGI: 12.3 µM
[4]
  GI50: 3.28 µM
  TGI: 10.4 µM
[5]
  GI50: 4.49 µM
  TGI: 31.6 µM
[6]
  GI50: 3.61 µM
  TGI: 19.8 µM
[7]
  GI50: 3.4 µM
  TGI: 10.4 µM
[8]
  GI50: 4.46 µM
  TGI: 17.9 µM

## Oc1ccc(I)c2cccnc12
[1]
  TGI: > 100 µM
[3]
  TGI: 23.8 µM
[4]
  TGI: 20.2 µM
[6]
  TGI: 72.1 µM
[7]
  TGI: > 100 µM
[8]
  TGI: > 100 µM

## NNC(=O)N/N=C(/CC1(O)C(=O)Nc2ccc(Br)cc21)c1ccccc1 (centres undefined)
[1]
  TGI: > 100 µM
[3]
  TGI: 69.1 µM
[6]
  TGI: > 100 µM
[7]
  TGI: > 100 µM

Reference: PubChem BioAssay (NCI)
